Source: US20240307362A1 (priority 2019, published 2024)
Read-outs that look alike come from different tables or passages of the source.

How the values were obtained:
human Bub1 = human Bub1 (Homo sapiens (Human), UniProt O43683); assay: Bub1 high ATP kinase assay (TR-FRET); type: biochemical; settings: read-out: Bub1 high ATP (2 mM) IC50; 2 mM ATP
From the text: Bub1-inhibitory activity of compounds of the present invention at a high ATP concentration was quantified employing the Bub1 TR-FRET high ATP kinase assay as described in the following paragraphs.
N-terminally His6-tagged recombinant catalytic domain of human Bub1 (amino acids 704-1085), expressed in insect cells (Hi5) and purified by Ni-NTA affinity chromatography and subsequent size exclusion chromatography, was used as enzyme.

Ba/F3-EGFR-insSVD = assay: Ba/F3 cell survival assay, EGFR-insSVD; type: cell-based
How it was run: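 Ba/F3 cells stably expressing WT EGFR or EGFR-insSVD via retrovirus, grown without IL-3 on 10 ng/mL EGF, plated at 4000 cells/well. Compound exposure 48 h at 37 °C; viability read by CellTiter-Glo luminescence.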

[1] = test system: Ba/F3-EGFR-D770_N771insNPG; assay: Ba/F3 cell survival assay, EGFR D770_N771insNPG; type: cell-based; settings: Mus musculus, BaF3, 48 h, read-out: BA/F3 (insNPG) IC50
Procedure: (§1) 293T cells from ATCC were transfected with pBABEpuro expression constructs for mutant EGFR (V769_D770insASV, D770_N771insNPG, N771_P772insH, H773_V774insNPH, E746_A750del, L858R, D770_N771 insSVD C797S, E746_A750del C797S, L858R C797S, L861Q) or mutant ERBB2 (A775_G776insYVMA) and pCL-Eco packaging vector using Fugene-6 transfection reagent from Promega. Plates were incubated at 37° C. for 48 h. Retrovirus was harvested by filtering the media supernatant through a 0.45 μm filter.
(§2) Ba/F3 cells purchased from DSMZ were grown in RPMI+10% FBS+10 ng/mL IL-3 and infected with filtered retroviral supernatant at a 1:2 dilution. Polybrene was added to a concentration of 8 μg/mL, plates were spun for 90 min, and incubated overnight at 37° C. 2 μg/mL puromycin was added to the infected cells 24 h after infection and cells were continually grown in the presence of puromycin and 10 ng/mL IL-3. Following stably expressing Ba/F3 cell lines were generated: Ba/F3-EGFR-V769_D770insASV, Ba/F3-EGFR-D770_N771insNPG, Ba/F3-EGFR-N771_P772insH, Ba/F3-EG, Ba/F3-EGFR-H773_V774insNPH, Ba/F3-EGFR-E746_A750del, Ba/F3-EGFR-L858R, Ba/F3-EGFR-D770_N771 insSVD C797S, Ba/F3-EGFR-E746_A750del C797S, Ba/F3-EGFR-L858R C797S, Ba/F3-EGFR L861Q and Ba/F3-ERBB2-A775_G776insYVMA (Ba/F3—vector-control).
(§3) For cell survival assays, Ba/F3 cells were grown to a density of 1-2 million cells per mL, spun down and resuspended in media without IL-3, and replated at a concentration 200,000-500,000 cells per mL. The cells ectopically expressing WT EGFR plated with 10 ng/mL Millipore Culture grade EGF and Ba/F3 cells containing mutant EGFR or Mutant ERBB2 were cultivated without EGF. The cells ectopically expressing pBABEpuro empty vector were plated with 10 ng/mL IL-3.
(§4) 2 days later, cells were plated in 50 μL in a 384 well plate at a concentration of 4000 cells per well for cells assayed in the absence of IL-3 and 2000 cells per well for cells assayed in the presence of IL-3. 100 nL of compound was added to each well using a 100 nL pin head, and plates were incubated at 37° C. for 48 h.
(§5) Cell viability was measured by adding 20 μL of Cell Titer-Glo Luminescent Cell Viability Reagent diluted 1:3 in PBS. Plates were sealed with Perkin Elmer Top-Seal, inverted several times to mix, and immediately centrifuged at 1000 rpm for 2 min. Plates were incubated in low light conditions for 8-10 min and luminescence was measured.

Ba/F3-EGFR-L858R = assay: Ba/F3 cell survival assay, EGFR L858R; type: cell-based; settings: 48 h, read-out: BA/F3 (EGFR L858R) IC50
Procedure: as §1, §2, §3, §4, §5

Ba/F3-EGFR L861Q = assay: Ba/F3 cell survival assay, EGFR L861Q; type: cell-based; settings: 48 h, read-out: BA/F3 (EGFR L861Q) IC50
Procedure: as §1, §2, §3, §4, §5

Ba/F3-EGFR-L858R C797S = assay: Ba/F3 cell survival assay, EGFR L858R C797S; type: cell-based; settings: 48 h, read-out: BA/F3 (EGFR L858R C797S) IC50
Procedure: as §1, §2, §3, §4, §5

[2] = test system: Ba/F3-ERBB2-A775_G776insYVMA; assay: Ba/F3 cell survival assay, ERBB2 A775_G776insYVMA; type: cell-based; settings: Mus musculus, BaF3, 48 h, read-out: BA/F3 (ERBB2 A775_G776 insYVMA) IC50
Procedure: as §1, §2, §3, §4, §5

PC9 cells = assay: PC9 cell proliferation assay (EGFRex19del); type: cell-based; settings: Homo sapiens, PC-9, 72 h, read-out: PC9 IC50
Procedure: PC9 cells were purchased from ATCC. 400 PC9 cells per well were seeded in growth medium (DMEM, 10% FCS) in a 384-well plate (CORNING #3571). Seed reference plate for time zero determination on the same day. All plates were incubated overnight at 37° C. After 24 hours, test compound were added in 7-step dilution using HP Compound printer and incubated at 37° C. for 72 h. After 3 days, 30 μL/well CTG solution (Promega Cell Titer Glo solution; catalog #G755B and G756B) were added to each well, incubated for 30 minutes and the plate were read on PheraStar. Proliferation is calculated after subtracting time zero luminescence values from day 4 values and comparing to untreated wells. The IC50 values were determined using the four parameter fit.

[3] = read-out: BA/F3 (insSVD) IC50, cell viability, Cell Titer-Glo, 48 h, with 10 ng/mL EGF, without IL-3

Chain of human Bub1 (O43683 704-1085): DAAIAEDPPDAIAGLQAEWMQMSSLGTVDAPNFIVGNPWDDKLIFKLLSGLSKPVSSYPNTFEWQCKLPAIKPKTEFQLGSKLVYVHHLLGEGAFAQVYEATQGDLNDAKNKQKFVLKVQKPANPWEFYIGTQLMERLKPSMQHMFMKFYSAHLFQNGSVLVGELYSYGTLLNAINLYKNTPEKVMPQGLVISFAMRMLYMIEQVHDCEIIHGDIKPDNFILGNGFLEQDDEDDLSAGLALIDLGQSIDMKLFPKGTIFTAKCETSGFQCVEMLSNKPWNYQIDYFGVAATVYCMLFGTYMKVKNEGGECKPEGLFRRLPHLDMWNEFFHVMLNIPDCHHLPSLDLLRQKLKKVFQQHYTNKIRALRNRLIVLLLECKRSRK

SMILES	IC50 (human Bub1)	IC50 (Ba/F3-EGFR-insSVD; [3])	IC50 [1]	IC50 (Ba/F3-EGFR-L858R)	IC50 (Ba/F3-EGFR L861Q)	IC50 (Ba/F3-EGFR-L858R C797S)	IC50 [2]	IC50 (PC9 cells)	IC50 (Ba/F3-EGFR-insSVD; Mus musculus, BaF3, 48 h, read-out: BA/F3 (insSVD) IC50, cell viability, Cell Titer-Glo, 48 h, with 10 ng/mL EGF, without IL-3)
COc1c(Cl)cccc1Nc1c(-c2ccncc2OCC2(C)CCO2)[nH]c2c1C(=O)NCC2 (single isomer, unassigned; (+)) [Example 48, (+)-3-(3-chloro-2-methoxyanilino)-2-{3-[(2-methyloxetan-2-yl)methoxy]pyridin-4-yl}-1,5,6,7-tetrahydro-4H-pyrrolo[3,2-c]pyridin-4-one]	10300 nM	9.65 nM	8.52 nM	1.28 nM	14.9 nM	1.28 nM	12.9 nM	2.1 nM	–
COc1c(Cl)cccc1Nc1c(-c2ccncc2OCC2OCC2(C)C)[nH]c2c1C(=O)NCC2 (single isomer, unassigned; (+)) [Example 50, (+)-3-(3-chloro-2-methoxyanilino)-2-{3-[(3,3-dimethyloxetan-2-yl)methoxy]pyridin-4-yl}-1,5,6,7-tetrahydro-4H-pyrrolo[3,2-c]pyridin-4-one]	> 20000 nM	8.76 nM	9.18 nM	1.62 nM	21.3 nM	2.92 nM	12.4 nM	2.3 nM	–
COc1c(Cl)cccc1Nc1c(-c2ccncc2OCCC2CCO2)[nH]c2c1C(=O)NCC2 (single isomer, unassigned; (-)) [Example 26, (−)-3-(3-chloro-2-methoxyanilino)-2-{3-[2-(oxetan-2-yl)ethoxy]pyridin-4-yl}-1,5,6,7-tetrahydro-4H-pyrrolo[3,2-c]pyridin-4-one]	1540 nM	7.31 nM	7.64 nM	0.813 nM	6.51 nM	1 nM	8.39 nM	1.4 nM	–
COc1c(Cl)cccc1Nc1c(-c2ccncc2OC[C@@H]2CCO2)[nH]c2c1C(=O)NCC2 [Example 2, 3-(3-chlor-2-methoxyanilino)-2-{3-[(2S)-oxetan-2-ylmethoxy]pyridin-4-yl}-1,5,6,7-tetrahydro-4H-pyrrolo[3,2-c]pyridin-4-on]	> 20000 nM	–	9.76 nM	1.2 nM	16.8 nM	1.53 nM	11.4 nM	2.31 nM	10.3 nM
